Laboratory results as given in ChEMBL document CHEMBL1201861, “Genomics of Drug Sensitity in Cancer screening data, Wellcome Trust Sanger Institute”.

Experiments:
Experiment in all cases: cells
IST-MES1 = type: functional, cell-based, Homo sapiens; settings: Homo sapiens, IST-MES1;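 note: growth inhibition of IST-MES1 cells, measured with a cell viability assay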
Description: SANGER: Inhibition of human IST-MES1 cell growth in a cell viability assay.

BEN = type: functional, cell-based, Homo sapiens; settings: Homo sapiens, BEN;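 note: growth inhibition of the BEN cell line, read out with a cell viability assay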
Description: SANGER: Inhibition of human BEN cell growth in a cell viability assay.

CAL-51 = type: functional, cell-based, Homo sapiens; settings: Homo sapiens, CAL-51;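 note: human CAL-51 cell line, growth inhibition read out via a cell viability assay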
Description: SANGER: Inhibition of human CAL-51 cell growth in a cell viability assay.

LS-513 = type: functional, cell-based, Homo sapiens; settings: Homo sapiens, LS-513
Description: SANGER: Inhibition of human LS-513 cell growth in a cell viability assay.

UMUC3 = type: functional, cell-based, Homo sapiens; settings: Homo sapiens, UMUC3;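 note: growth inhibition of human UM-UC-3 cells, read out with a cell viability assay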
Description: SANGER: Inhibition of human UM-UC-3 cell growth in a cell viability assay.

KE-37 = type: functional, cell-based; settings: Homo sapiens;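 note: growth inhibition of KE-37 cells, read out with a cell viability assay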
Description: SANGER: Inhibition of human KE-37 cell growth in a cell viability assay.

SW837 = type: functional, cell-based, Homo sapiens; settings: Homo sapiens, SW837;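 note: growth inhibition of SW837 cells, determined with a cell viability assay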
Description: SANGER: Inhibition of human SW837 cell growth in a cell viability assay.

ESS-1 = type: functional, cell-based, Homo sapiens; settings: Homo sapiens, ESS-1;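 note: growth inhibition of human ESS-1 cells, read out by a cell viability assay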
Description: SANGER: Inhibition of human ESS-1 cell growth in a cell viability assay.

KM-H2 = type: functional, cell-based; settings: Homo sapiens;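 note: growth inhibition of KM-H2 cells, read out by a cell viability assay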
Description: SANGER: Inhibition of human KM-H2 cell growth in a cell viability assay.

SW1417 = type: functional, cell-based, Homo sapiens; settings: Homo sapiens, SW1417;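 note: growth inhibition of human SW1417 cells, read out with a cell viability assay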
Description: SANGER: Inhibition of human SW1417 cell growth in a cell viability assay.

NCI-H441 = type: functional, cell-based; settings: Homo sapiens;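 note: growth inhibition of NCI-H441 cells, read out with a cell viability assay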
Description: SANGER: Inhibition of human NCI-H441 cell growth in a cell viability assay.

YKG-1 = type: functional, cell-based, Homo sapiens; settings: Homo sapiens, YKG-1;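 note: cell growth inhibition, read out with a viability assay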
Description: SANGER: Inhibition of human YKG-1 cell growth in a cell viability assay.

HT1197 = type: functional, cell-based, Homo sapiens, HT-1197; settings: Homo sapiens, HT1197
Description: SANGER: Inhibition of human HT-1197 cell growth in a cell viability assay.

NMC-G1 = type: functional, cell-based, Homo sapiens; settings: Homo sapiens, NMC-G1;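 note: growth inhibition of the NMC-G1 cell line, measured with a cell viability read-out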
Description: SANGER: Inhibition of human NMC-G1 cell growth in a cell viability assay.

DK-MG = type: functional, cell-based, Homo sapiens; settings: Homo sapiens, DK-MG;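 note: growth inhibition of DK-MG cells, read out with a cell viability assay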
Description: SANGER: Inhibition of human DK-MG cell growth in a cell viability assay.

TE-8 = type: functional, cell-based, Homo sapiens; settings: Homo sapiens, TE-8;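 note: growth inhibition of TE-8 cells, measured with a cell viability readout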
Description: SANGER: Inhibition of human TE-8 cell growth in a cell viability assay.

AM-38 = type: functional, cell-based, Homo sapiens; settings: Homo sapiens, AM-38;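 note: growth inhibition of AM-38 cells of human origin, read out by a cell viability assay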
Description: SANGER: Inhibition of human AM-38 cell growth in a cell viability assay.

RKO = type: functional, cell-based, Homo sapiens; settings: Homo sapiens, RKO;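 note: growth inhibition of human RKO cells, read out with a cell viability assay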
Description: SANGER: Inhibition of human RKO cell growth in a cell viability assay.

NB17 = type: functional, cell-based; settings: Homo sapiens;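 note: growth inhibition of NB17 cells, read out with a cell viability assay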
Description: SANGER: Inhibition of human NB17 cell growth in a cell viability assay.

ES1 = type: functional, cell-based, Homo sapiens; settings: Homo sapiens, ES1
Description: SANGER: Inhibition of human ES1 cell growth in a cell viability assay.

PSN1 = type: functional, cell-based, Homo sapiens; settings: Homo sapiens, PSN1;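 note: suppression of growth of human PSN1 cells, read out by a cell viability assay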
Description: SANGER: Inhibition of human PSN1 cell growth in a cell viability assay.

MDA-MB-453 = type: functional, cell-based, Homo sapiens; settings: Homo sapiens, MDA-MB-453
Description: SANGER: Inhibition of human MDA-MB-453 cell growth in a cell viability assay.

OVCAR-3 = type: functional, cell-based, Homo sapiens; settings: Homo sapiens, OVCAR-3;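 note: growth inhibition of human OVCAR-3 cells, determined by a cell viability assay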
Description: SANGER: Inhibition of human OVCAR-3 cell growth in a cell viability assay.

SF-268 = type: functional, cell-based, Homo sapiens; settings: Homo sapiens, SF-268;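 note: growth inhibition of SF-268 cells determined with a cell viability assay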
Description: SANGER: Inhibition of human SF268 cell growth in a cell viability assay.

U-87 MG = type: functional, cell-based, U-87MG ATCC; settings: Homo sapiens;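 note: growth inhibition of the cells measured with a viability assay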
Description: SANGER: Inhibition of human U-87-MG cell growth in a cell viability assay.

KYSE-140 = type: functional, cell-based, Homo sapiens; settings: Homo sapiens, KYSE-140;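 note: cell viability assay measuring growth inhibition in human KYSE-140 cells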
Description: SANGER: Inhibition of human KYSE-140 cell growth in a cell viability assay.

JAR = type: functional, cell-based, Homo sapiens; settings: Homo sapiens, JAR;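 note: growth inhibition of human JAR cells determined with a cell viability assay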
Description: SANGER: Inhibition of human JAR cell growth in a cell viability assay.

P30-OHK = type: functional, cell-based; settings: Homo sapiens;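 note: growth inhibition of the P30-OHK cell line, read out with a cell viability assay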
Description: SANGER: Inhibition of human P30-OHK cell growth in a cell viability assay.

SW982 = type: functional, cell-based; settings: Homo sapiens;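 note: growth inhibition of SW982 cells, read out with a cell viability assay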
Description: SANGER: Inhibition of human SW982 cell growth in a cell viability assay.

HCE-T = type: functional, cell-based, Homo sapiens; settings: Homo sapiens, HCE-T;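 note: cell viability assay read-out, reporting inhibition of HCE-T cell growth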
Description: SANGER: Inhibition of human HCE-T cell growth in a cell viability assay.

MSTO-211H = type: functional, cell-based, Homo sapiens; settings: Homo sapiens, MSTO-211H
Description: SANGER: Inhibition of human MSTO-211H cell growth in a cell viability assay.

Calu-3 = type: functional, cell-based, Homo sapiens; settings: Homo sapiens, Calu-3;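 note: growth inhibition of human Calu-3 cells, determined with a cell viability assay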
Description: SANGER: Inhibition of human Calu-3 cell growth in a cell viability assay.

U-251 = type: functional, cell-based, Homo sapiens; settings: Homo sapiens, U-251;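 note: growth inhibition of human U-251 cells, read out through a cell viability assay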
Description: SANGER: Inhibition of human U251 cell growth in a cell viability assay.

NCI-H209 = type: functional, cell-based; settings: Homo sapiens;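 note: growth inhibition of human NCI-H209 cells, measured by a cell viability assay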
Description: SANGER: Inhibition of human NCI-H209 cell growth in a cell viability assay.

SF-295 = type: functional, cell-based, Homo sapiens; settings: Homo sapiens, SF-295;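 note: growth inhibition of SF-295 cells, read out with a cell viability assay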
Description: SANGER: Inhibition of human SF295 cell growth in a cell viability assay.

EW-18 = type: functional, cell-based; settings: Homo sapiens;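 note: growth inhibition of EW-18 cells, read out by a cell viability assay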
Description: SANGER: Inhibition of human EW-18 cell growth in a cell viability assay.

COR-L88 = type: functional, cell-based; settings: Homo sapiens;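 note: growth inhibition of COR-L88 cells, read out with a cell viability assay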
Description: SANGER: Inhibition of human COR-L88 cell growth in a cell viability assay.

SW 954 = type: functional, cell-based, Homo sapiens; settings: Homo sapiens, SW 954;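 note: growth inhibition of SW954 human cancer cells, read out as cell viability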
Description: SANGER: Inhibition of human SW954 cell growth in a cell viability assay.

EC-GI-10 = type: functional, cell-based, Homo sapiens; settings: Homo sapiens, EC-GI-10
Description: SANGER: Inhibition of human EC-GI-10 cell growth in a cell viability assay.

ES3 = type: functional, cell-based, Homo sapiens; settings: Homo sapiens, ES3;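 note: growth inhibition of ES3 cells, read out with a cell viability assay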
Description: SANGER: Inhibition of human ES3 cell growth in a cell viability assay.

MFE-280 = type: functional, cell-based, Homo sapiens; settings: Homo sapiens, MFE-280;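 note: growth inhibition of MFE-280 cells, determined with a cell viability readout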
Description: SANGER: Inhibition of human MFE-280 cell growth in a cell viability assay.

RPMI-8226 = type: functional, cell-based; settings: Homo sapiens
Description: SANGER: Inhibition of human RPMI-8226 cell growth in a cell viability assay.

ES8 = type: functional, cell-based, Homo sapiens; settings: Homo sapiens, ES8;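 note: growth inhibition of human ES8 cells, read out with a cell viability assay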
Description: SANGER: Inhibition of human ES8 cell growth in a cell viability assay.

CAL-39 = type: functional, cell-based, Homo sapiens; settings: Homo sapiens, CAL-39;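 note: cell viability assay measuring growth inhibition of CAL-39 cells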
Description: SANGER: Inhibition of human CAL-39 cell growth in a cell viability assay.

SW1573 = type: functional, cell-based, Homo sapiens; settings: Homo sapiens, SW1573;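 note: growth inhibition of SW1573 cells, read out with a cell viability assay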
Description: SANGER: Inhibition of human SW1573 cell growth in a cell viability assay.

HOP-62 = type: functional, cell-based, Homo sapiens; settings: Homo sapiens, HOP-62;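 note: cell growth inhibition determined with a viability assay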
Description: SANGER: Inhibition of human HOP-62 cell growth in a cell viability assay.

SK-MEL-30 = type: functional, cell-based; settings: Homo sapiens;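 note: growth inhibition of SK-MEL-30 cells, determined with a cell viability assay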
Description: SANGER: Inhibition of human SK-MEL-30 cell growth in a cell viability assay.

ALL-PO = type: functional, cell-based; settings: Homo sapiens;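 note: growth inhibition of ALL-PO cells, read out by a cell viability assay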
Description: SANGER: Inhibition of human ALL-PO cell growth in a cell viability assay.

Daoy = type: functional, cell-based, Homo sapiens; settings: Homo sapiens, Daoy;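 note: daoy cell growth inhibition, read out as cell viability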
Description: SANGER: Inhibition of human Daoy cell growth in a cell viability assay.

KP-4 = type: functional, cell-based, Homo sapiens; settings: Homo sapiens, KP-4;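 note: human KP-4 cells, with growth inhibition read out through a cell viability assay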
Description: SANGER: Inhibition of human KP-4 cell growth in a cell viability assay.

EGI-1 = type: functional, cell-based, Homo sapiens; settings: Homo sapiens, EGI-1;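 note: cell viability readout used to gauge growth inhibition of EGI-1 cells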
Description: SANGER: Inhibition of human EGI-1 cell growth in a cell viability assay.

CP66-MEL = type: functional, cell-based, Homo sapiens; settings: Homo sapiens, CP66-MEL;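 note: growth inhibition of CP66-MEL cells determined in a cell viability assay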
Description: SANGER: Inhibition of human CP66-MEL cell growth in a cell viability assay.

CC(=O)O[C@@]12CO[C@@H]1C[C@H](O)[C@@]1(C)C(=O)[C@H](O)C3=C(C)[C@@H](OC(=O)[C@H](O)[C@@H](NC(=O)OC(C)(C)C)c4ccccc4)C[C@@](O)([C@@H](OC(=O)c4ccccc4)[C@H]21)C3(C)C [DOCETAXEL]
IC50 (IST-MES1): 8.4 nM | IC50 (BEN): > 10 nM | IC50 (CAL-51): 2.71 nM | IC50 (LS-513): > 10 nM | IC50 (UMUC3): > 10 nM | IC50 (KE-37): > 10 nM | IC50 (SW837): > 10 nM | IC50 (ESS-1): 0.179 nM | IC50 (KM-H2): > 10 nM | IC50 (SW1417): 2.76 nM | IC50 (NCI-H441): > 10 nM | IC50 (YKG-1): 0.707 nM | IC50 (HT1197): > 10 nM | IC50 (NMC-G1): 0.517 nM | IC50 (DK-MG): 8.6 nM | IC50 (TE-8): 0.366 nM | IC50 (AM-38): > 10 nM | IC50 (RKO): 0.989 nM | IC50 (NB17): 1.89 nM | IC50 (ES1): 0.77 nM | IC50 (PSN1): 0.581 nM | IC50 (MDA-MB-453): 4.51 nM | IC50 (OVCAR-3): 4.07 nM | IC50 (SF-268): 1.21 nM | IC50 (U-87 MG): 3.55 nM | IC50 (KYSE-140): 0.933 nM | IC50 (JAR): 4.37 nM | IC50 (P30-OHK): > 10 nM | IC50 (SW982): 1.27 nM | IC50 (HCE-T): 0.162 nM | IC50 (MSTO-211H): > 10 nM | IC50 (Calu-3): > 10 nM | IC50 (U-251): 2.5 nM | IC50 (NCI-H209): 2.86 nM | IC50 (SF-295): > 10 nM | IC50 (EW-18): > 10 nM | IC50 (COR-L88): > 10 nM | IC50 (SW 954): 0.823 nM | IC50 (EC-GI-10): 0.592 nM | IC50 (ES3): 2.77 nM | IC50 (MFE-280): > 10 nM | IC50 (RPMI-8226): 4.97 nM | IC50 (ES8): 0.26 nM | IC50 (CAL-39): 1.63 nM | IC50 (SW1573): 5.54 nM | IC50 (HOP-62): > 10 nM | IC50 (SK-MEL-30): 7.32 nM | IC50 (ALL-PO): 8.6 nM | IC50 (Daoy): 0.7 nM | IC50 (KP-4): 1.56 nM | IC50 (EGI-1): 3.62 nM | IC50 (CP66-MEL): 3 nM

Nc1ccn([C@@H]2O[C@H](CO)[C@@H](O)[C@@H]2O)c(=O)n1 [CYTARABINE]
IC50 (IST-MES1): > 2000 nM | IC50 (BEN): > 2000 nM | IC50 (CAL-51): 571 nM | IC50 (LS-513): 380 nM | IC50 (UMUC3): 342 nM | IC50 (KE-37): 111 nM | IC50 (SW837): > 2000 nM | IC50 (ESS-1): > 2000 nM | IC50 (KM-H2): > 2000 nM | IC50 (SW1417): > 2000 nM | IC50 (NCI-H441): > 2000 nM | IC50 (YKG-1): 298 nM | IC50 (HT1197): > 2000 nM | IC50 (NMC-G1): 1960 nM | IC50 (DK-MG): > 2000 nM | IC50 (TE-8): 219 nM | IC50 (AM-38): 1470 nM | IC50 (RKO): 599 nM | IC50 (NB17): > 2000 nM | IC50 (ES1): 13 nM | IC50 (PSN1): 193 nM | IC50 (MDA-MB-453): > 2000 nM | IC50 (OVCAR-3): > 2000 nM | IC50 (SF-268): 1360 nM | IC50 (U-87 MG): 1740 nM | IC50 (KYSE-140): > 2000 nM | IC50 (JAR): 338 nM | IC50 (P30-OHK): 56.5 nM | IC50 (SW982): 91.2 nM | IC50 (HCE-T): > 2000 nM | IC50 (MSTO-211H): 324 nM | IC50 (Calu-3): > 2000 nM | IC50 (U-251): 1130 nM | IC50 (NCI-H209): > 2000 nM | IC50 (SF-295; read-out: IC50): > 2000 nM | IC50 (EW-18): > 2000 nM | IC50 (COR-L88): > 2000 nM | IC50 (SW 954): > 2000 nM | IC50 (EC-GI-10): 557 nM | IC50 (ES3): 199 nM | IC50 (MFE-280): > 2000 nM | IC50 (RPMI-8226): > 2000 nM | IC50 (ES8): 124 nM | IC50 (CAL-39): 998 nM | IC50 (SW1573): > 2000 nM | IC50 (HOP-62): > 2000 nM | IC50 (SK-MEL-30): > 2000 nM | IC50 (ALL-PO): 287 nM | IC50 (Daoy): 532 nM | IC50 (KP-4; read-out: IC50): 536 nM | IC50 (EGI-1): 1110 nM | IC50 (CP66-MEL): > 2000 nM
